Data set [1] deals with T1, human collagenase-3 (Coll3) (Homo sapiens, UniProt P45452).
T1 construct: the catalytic domain was liberated by treatment with 2 mM APMA at room temperature overnight; ubiquitin (N, cleaved yes); made in house; host or cells: E. coli
Description: Fluorometric MCA-peptide hydrolysis assay, collagenase-3 (Coll3). The class given is biochemical. The note with it: apparent Ki; 10 μM MCA peptide substrate, 37° C., pH 7.5; read-out: Coll3 (Ki,app). As to the method:
The propeptide and catalytic domain of human collagenase-3 (Coll3) was expressed in E. coli as an N-terminal fusion protein with ubiquitin. After purification of the fusion from inclusion bodies, the catalytic domain was liberated by treatment with 2 mM APMA at room temperature overnight. Final purification was completed using copper chelate chromatography.
(§1) Assays were performed in assay buffer (50 mM Tricine pH 7.5, 200 mM sodium chloride, 10 mM calcium chloride, 0.5 mM zinc acetate containing 2% dimethyl sulfoxide (DMSO)) once the substrate and inhibitor were diluted into it. Stock solutions of inhibitors were prepared in 100% DMSO. Stock solutions of the substrate were prepared in 100% DMSO at a concentration of 6 mM.
(§2) The assay method was based on the hydrolysis of MCA-Pro-Leu-Gly-Leu-DPA-Ala-Arg-NH2 (American Peptide Co.) at 37° C. (see Knight, C. G. et al., FEBS, 1992, 296, 263-266). The fluorescence changes were monitored with a Perkin-Elmer LS-50B fluorimeter using an excitation wavelength of 328 nm and an emission wavelength of 393 nm. The substrate concentration used in the assays was 10 μM. The inhibitor was diluted into the assays from a solution in 100% DMSO, and controls substituted an equal volume of DMSO so that the final DMSO concentration from inhibitor and substrate dilution in all assays was 2%. […] Proper determination of steady-state rates of substrate cleavage required assay lengths of 60 minutes to allow for complete equilibration of the enzyme-inhibitor complex.
The Km for the MCA peptide substrate with the matrix metalloproteinases is quite high and exceeds its solubility under assay conditions. Consequently, the apparent Ki (Ki,app) was determined to describe the strength of inhibition. However, in this case, Ki,app would be essentially equal to Ki since [S]<<Km. For the determination of Ki,app, the concentration of the inhibitor was varied at a constant and low concentration of substrate and the steady-state rates of fluorescence change determined. […] For slow-binding inhibitors, onset of inhibition curves were collected for at least 45 minutes so that equilibrium was established. Steady-state rates of fluorescence change were obtained by fitting a curve to an equation for a single exponential decay containing a linear phase. The fitted value of the linear phase was taken as the steady-state rate. The steady-state rates were fitted to the Michaelis equation describing competitive inhibition by non-linear methods. Data resulting from tight-binding inhibition was analyzed, and Ki,app determined by fitting the data to the tight-binding equation of Morrison (Biochem. Biophys. Acta, vol. 185, pp. 269-286 (1969)) by non-linear methods.

Data set [2] addresses T2, fibroblast collagenase-1 catalytic domain (HFC) (Homo sapiens, UniProt P03956).
T2 construct: The catalytic domain of human collagenase-1 was expressed as a fusion protein with ubiquitin in E. coli; ubiquitin (cleaved yes); made in house; host or cells: E. coli
T2 sequence (P03956 100-269 limits assumed): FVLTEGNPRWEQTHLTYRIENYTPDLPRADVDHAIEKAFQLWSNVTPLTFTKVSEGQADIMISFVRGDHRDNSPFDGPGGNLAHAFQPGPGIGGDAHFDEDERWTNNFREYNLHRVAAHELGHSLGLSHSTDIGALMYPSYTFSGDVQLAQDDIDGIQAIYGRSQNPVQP
Put plainly: Fluorometric MCA-peptide hydrolysis assay, fibroblast collagenase-1 (HFC). It is filed as biochemical. The note with it: apparent Ki; 10 μM MCA peptide substrate, 37° C., pH 7.5; read-out: HFC (Ki,app). As to the method:
The catalytic domain of human collagenase-1 was expressed as a fusion protein with ubiquitin in E. coli (see Gehring, E. R., J Biol. Chem., 1995, 270, 22507). After purification of the fusion protein, the fibroblast collagenase-1 catalytic domain (HFC) was released either by treatment with purified, active stromelysin-1 (1:50 w/w ratio), which generated nearly 100% N-terminal Phe1, or by autoprocessing the concentrated collagenase-1 fusion and then incubating at 37° C. for 1 hour. Final purification was completed using zinc chelate chromatography.
as §1, §2
(§3) The Km for the MCA peptide substrate with the matrix metalloproteinases is quite high and exceeds its solubility under assay conditions. Consequently, the apparent Ki (Ki,app) was determined to describe the strength of inhibition. However, in this case, Ki,app would be essentially equal to Ki since [S]<<Km. For the determination of Ki,app, the concentration of the inhibitor was varied at a constant and low concentration of substrate and the steady-state rates of fluorescence change determined. In most cases absorptive quench due to the presence of ligand was not observed. For slow-binding inhibitors, onset of inhibition curves were collected for at least 45 minutes so that equilibrium was established. Steady-state rates of fluorescence change were obtained by fitting a curve to an equation for a single exponential decay containing a linear phase. The fitted value of the linear phase was taken as the steady-state rate. The steady-state rates were fitted to the Michaelis equation describing competitive inhibition by non-linear methods. Data resulting from tight-binding inhibition was analyzed, and Ki,app determined by fitting the data to the tight-binding equation of Morrison (Biochem. Biophys. Acta, vol. 185, pp. 269-286 (1969)) by non-linear methods.

Data set [3] deals with T3, catalytic domain of human stromelysin (Hsln) (Homo sapiens, UniProt P08254).
T3 construct: The catalytic domain of human stromelysin (Hsln) was obtained by expression and purification of a C-terminally truncated prostromelysin-1; made in house; host or cells: E. coli BL21
Put plainly: Fluorometric MCA-peptide hydrolysis assay, stromelysin (Hsln). The class given is biochemical. The note with it: apparent Ki; 10 μM MCA peptide substrate, 37° C., pH 7.5; read-out: Hsln (Ki,app). As to the method: The catalytic domain of human stromelysin (Hsln) was obtained by expression and purification of a C-terminally truncated prostromelysin-1 from E. coli host BL21 (see Marcy et al. Biochem., 1991, 30, 6476). The subsequent activation of the mature form (Hsln) was completed with 2 mM APMA for 1 hour at 37° C., followed by separation using a sizing column.
as §1, §2, §3

Data set [4] deals with T4, human progelatinase A (GelA), catalytic and fibronectin-like portion (Homo sapiens, UniProt P08253).
T4 construct: The catalytic and fibronectin-like portion of human progelatinase A (GelA) was expressed as a fusion protein with ubiquitin; ubiquitin; made in house; host or cells: E. coli
Description: Fluorometric MCA-peptide hydrolysis assay, gelatinase A (GelA). It is filed as biochemical. The note with it: apparent Ki; 10 μM MCA peptide substrate, 37° C., pH 7.5. As to the method:
The catalytic and fibronectin-like portion of human progelatinase A (GelA) was expressed as a fusion protein with ubiquitin in E. Coli. Assays were carried out on autocatalytically activated material.
as §1, §2, §3

The target of a further data set is T5, Human matrilysin (Matr) (Homo sapiens, UniProt P09237).
T5 construct: the catalytic domain was liberated by treatment with 2 mM APMA at 37° C. for 2 hours; ubiquitin (cleaved yes); made in house; host or cells: E. coli
T5 sequence (P09237 95-267): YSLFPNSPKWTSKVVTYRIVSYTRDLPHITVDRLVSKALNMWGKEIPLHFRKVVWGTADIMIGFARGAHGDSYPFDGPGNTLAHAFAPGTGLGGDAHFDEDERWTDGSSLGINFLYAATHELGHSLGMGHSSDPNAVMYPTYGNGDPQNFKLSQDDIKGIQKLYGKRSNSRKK
Description: Fluorometric MCA-peptide hydrolysis assay, matrilysin (Matr). The class given is biochemical. The note with it: apparent Ki; 10 μM MCA peptide substrate, 37° C., pH 7.5; read-out: Matr (Ki,app). As to the method: Human matrilysin (Matr) was expressed in E. coli as a fusion protein with ubiquitin. After purification of the matrilysin/ubiquitin fusion from inclusion bodies, the catalytic domain was liberated by treatment with 2 mM APMA at 37° C. for 2 hours. Final purification was complete using copper chelate chromatography.
as §1, §2, §3

pKi: −log10 of the molar value. Structures can show the parent of a compound that is named as a salt.

T3 sequence (P08254 100-272 limits assumed): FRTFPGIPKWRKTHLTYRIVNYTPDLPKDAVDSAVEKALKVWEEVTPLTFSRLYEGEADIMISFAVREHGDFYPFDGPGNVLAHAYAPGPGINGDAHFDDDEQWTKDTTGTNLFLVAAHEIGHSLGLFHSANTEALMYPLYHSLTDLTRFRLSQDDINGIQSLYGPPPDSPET
T4 sequence (P08253 110-465 limits assumed): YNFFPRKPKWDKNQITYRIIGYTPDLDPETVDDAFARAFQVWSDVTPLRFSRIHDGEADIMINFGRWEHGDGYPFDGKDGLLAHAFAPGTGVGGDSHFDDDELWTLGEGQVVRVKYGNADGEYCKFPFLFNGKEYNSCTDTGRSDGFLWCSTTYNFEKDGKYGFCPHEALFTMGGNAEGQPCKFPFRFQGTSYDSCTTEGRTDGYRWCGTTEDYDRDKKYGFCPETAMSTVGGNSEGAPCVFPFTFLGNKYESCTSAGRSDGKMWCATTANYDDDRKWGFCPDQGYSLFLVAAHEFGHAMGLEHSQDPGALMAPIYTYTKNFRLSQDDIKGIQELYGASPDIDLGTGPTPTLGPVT

For the molecule `O=C(CC(C(=O)N[C@H]1CCCCNC1=O)n1cnc(-c2ccc(-c3ccccc3)cc2)c1)NO` (mixture of isomers) [Example 19(a)], the negative-log Ki (pKi) (usually the Ki on a negative log10 scale, so that one unit is a factor of ten) in data set [1] is 7.37; in data set [2], 4.24; in data set [3], 7.51.
`CC(C)(C)[C@@H](CO)NC(=O)C(CC(=O)NO)n1cnc(-c2ccc(-c3ccccc3)cc2)c1` (mixture of isomers) [Example 19(b), 3(RS)-(3-Biphenyl-4-yl-1H-imidazol-1-yl)-N^4-(2,2-dimethyl-1(S)-hydroxymethylpropyl)-N^1-hydroxy-succindiamide]: the negative-log Ki (pKi) in data set [1] was 8.01; in data set [2], 4.18; in data set [3] it was 7.77.
For `CNC(=O)[C@@H](NC(=O)C(CC(=O)NO)n1cnc(-c2ccc(-c3ccccc3)cc2)c1)C(C)(C)C` (mixture of isomers) [Example 19(e)], in that order: 9.89, 6.51 and 8.64.
Take `COC[C@H](Cc1ccccc1)NC(=O)[C@@H](CC(=O)O)n1ccc(-c2ccc(-c3ccccc3)cc2)c1` [Example 1(f), N-(1(S)-Benzyl-2-methoxyethyl)-3(R)-[3-(biphenyl-4-yl)-1H-pyrrol-1-yl]succinamic Acid]: the melting point (commonly the temperature of the solid-liquid transition) was 247 °C. The pKi in data set [1] was 6.27. In addition, the GelA (Ki,app) in data set [4] was 93 nM. In addition, the negative logarithm of the Ki (pKi) at Human matrilysin (Matr) is 6.00. In data set [3], the pKi is 6.48.
The molecule `COC(=O)c1ccc(NC(=O)[C@H](CC(C)C)NC(=O)[C@@H](CC(=O)O)n2ccc(-c3ccc(-c4ccccc4)cc3)c2)cc1` [Example 1(k), 4-[2S-[2(R)-[3-(Biphenyl-4-yl)-1H-pyrrol-1-yl]-3-carboxy-propionylamino]-4-methyl-pentanoylamino]benzoic Acid Methyl Ester] had a melting point of 209 to 211 °C. Besides, the pKi in data set [1] was 7.40. The GelA (Ki,app) in data set [4] is 1.9 nM. In addition, at Human matrilysin (Matr), the pKi is 7.96. In addition, the negative logarithm of the Ki (pKi) in data set [3] was 9.82.
`N#Cc1ccc(-c2ccc(-c3ccn([C@H](CC(=O)O)C(=O)N[C@H](CO)Cc4ccccc4)c3)cc2)cc1` [Example 4(a), N-(1(S)-Benzyl-2-hydroxyethyl)-3(R)-[3-(4′-cyanobiphenyl-4-yl)-1H-pyrrol-1-yl]succinamic Acid]: the melting point is 189 to 192 °C. Also, in data set [1], the pKi is 8.57. For the same molecule, the GelA (Ki,app) in data set [4] is 1.3 nM. Besides, the pKi at Human matrilysin (Matr) is 5.28. The pKi in data set [3] was 7.52.
In turn, `NC(=O)c1ccc(-c2ccc(-c3ccn([C@H](CC(=O)O)C(=O)N[C@H](CO)Cc4ccccc4)c3)cc2)cc1` [Example 4(b), N-(1-Benzyl-2-hydroxyethyl)-3(R)-[3-(4′-carbamoylbiphenyl-4-yl)-1H-pyrrol-1-yl]succinamic Acid] returned a melting point of 218 to 220 °C. The pKi in data set [1] was 8.67. Further, the GelA (Ki,app) in data set [4] worked out at 1.11 nM. Also, at Human matrilysin (Matr), the pKi was 5.82. Further, the pKi in data set [3] was 7.64.
Regarding `O=C(O)C[C@H](C(=O)N[C@H](CO)c1ccccc1)n1ccc(-c2ccc(-c3ccncc3)cc2)c1` [Example 5(b), N-(2-Hydroxy-1(S)-phenylethyl)-3(R)-[3-[4-(pyridin-4-yl)phenyl]-1H-pyrrol-1-yl]succinamic Acid], the pKi in data set [1] was 8.04; in data set [2], under 4.92; at Human matrilysin (Matr), 5.28; in data set [3] it was 7.52. Also, in data set [4], the GelA (Ki,app) worked out at 1.04 nM.
Taken in the same sequence, the figures for `CC(C)(C)[C@H](NC(=O)[C@@H](CC(=O)O)n1ccc(-c2ccc(-c3ccc(C#N)cc3)cc2)c1)C(=O)Nc1ccncc1` [Example 5(d), 3(R)-[3-(4′-Cyanobiphenyl-4-yl)-1H-pyrrol-1-yl]-N-[2,2-dimethyl-1(S)-(pyridin-4-ylcarbamoyl)propyl]succinamic Acid Formate Salt] were 9.64, under 5.70, 8.35, 8.80 and 0.028 nM.
Take `O=C(O)C[C@H](C(=O)N[C@@H]1c2ccccc2C[C@H]1O)n1ccc(-c2ccc(-c3ccncc3)cc2)c1` [Example 6(a), N-(2(R)-Hydroxyindan-1(R)-yl)-3(R)-[3-[4-(pyridin-4-yl)phenyl]-1H-pyrrol-1-yl]succinamic Acid]: the pKi in data set [1] is 7.81; in data set [2], 5.05; on Human matrilysin (Matr), 5.82; in data set [3] it was 7.82. The GelA (Ki,app) in data set [4] is 6.62 nM.
`CCC[C@H](C(=O)O)[C@H](C(=O)N[C@H](CO)C(C)(C)C)n1ccc(-c2ccc(-c3ccc(C#N)cc3)cc2)c1` [Example 10(c), 2S-[1R-(3-(4′-Cyanobiphenyl-4-yl)-1H-pyrrol-1-yl)-1-(2,2-dimethyl-1(S)-(hydroxymethyl)propylcarbamoyl)-methyl]-pentanoic Acid] showed a melting point of 130 to 132 °C. Besides, the pKi in data set [1] is 7.30. Also, the GelA (Ki,app) in data set [4] was found to be 22 nM. The pKi at Human matrilysin (Matr) was 5.66. Further, the negative-log Ki (pKi) in data set [3] was 7.40.
